Calls of active or inactive are those of the source. The rule behind the calls is not given here.
Target: Influenza A virus M2 proton channel (A/TW/4845/1999 H1N1)
Test: M2 proton channel binding, NMR based, influenza A virus H1N1 strain (AID 1549)
Conditions: NMR binding screen, M2 protein

SMILES | Kd
Cc1ccc(SCCN2C(=O)NC(C)(C)C2=O)cc1 | > 4 mM (inactive)
O=C(NCc1cccc(Cl)c1)c1cccnc1 | > 4 mM (inactive)
Cc1cc(NC(=O)Cc2cccs2)no1 | > 4 mM (inactive)
COc1ccc2cc3[n+](cc2c1OC)CCc1cc2c(cc1-3)OCO2 | > 4 mM (inactive)
C(=N\c1ncn[nH]1)/c1cccs1 | > 4 mM (inactive)
Cc1cc(NC(=O)c2cccc(S(C)(=O)=O)c2)no1 | > 4 mM (inactive)
Cc1cc(OC(=O)c2c(C)cc(O)cc2O)cc(O)c1C(=O)O | > 4 mM (inactive)
O=C(CCc1n[nH]c(=O)[nH]c1=O)NCc1ccccc1 | > 4 mM (inactive)
O=C1C2C3C=CC(O3)C2C(=O)N1c1ccccc1 (configuration not stated) | > 4 mM (inactive)
Cn1cnc2c(=S)[nH]c(=O)n(Cc3ccccc3)c21 | > 4 mM (inactive)
CCC1=Nc2ccccc2-c2nnc(SC)nc2O1 | > 4 mM (inactive)
C(=Nn1cnnc1)c1ccccc1 | > 4 mM (inactive)
NC(=O)c1sc2ccccc2c1Cl | > 4 mM (inactive)
O=C(Nc1ccc(O)cc1)N1CCOCC1 | > 4 mM (inactive)
Cc1cc(C(=O)N2CCN(S(C)(=O)=O)CC2)cs1 | > 4 mM (inactive)
CSc1n[nH]c(NCc2ccccc2)n1 | > 4 mM (inactive)
CCCNC(=O)CSc1ncccc1C(=O)O | > 4 mM (inactive)
COc1ccc2c(c1)=C(c1sc(N)nc1O)C(=O)N=2 | > 4 mM (inactive)
COc1cc(C(=O)O[C@H]2CC[C@@]3(C)[C@@H]4CC[C@H]5[C@]6(O)C[C@H](O)[C@@]7(O)[C@@H](CN8C[C@@H](C)CC[C@H]8[C@@]7(C)O)[C@]6(O)C[C@@]53OC24O)cc(OC)c1OC | > 4 mM (inactive)
O=C1C=C(Nc2ccccc2O)c2ccccc2C1=O | > 4 mM (inactive)
O=C(O)C1Cc2ccccc2O1 (configuration not stated) | > 4 mM (inactive)

SMILES | Kd
NC(N)=Nc1nc2ccccc2o1 | > 4 mM (inactive)
CC(C)(C)C(=O)Nc1nnc(SCC(N)=O)s1 | > 4 mM (inactive)
O=C1CCCN1C(=O)c1ccc(F)cc1 | > 4 mM (inactive)
c1ccc(CSc2ncccn2)cc1 | > 4 mM (inactive)
O=c1c2ccccc2nc2n1CCC2O (configuration not stated) | > 4 mM (inactive)
Cc1cc(C(=O)NCc2cccnc2)cs1 | > 4 mM (inactive)
NCc1ccc(S(N)(=O)=O)cc1 | > 4 mM (inactive)
C=C1C([C@]2(C)C(CC(=O)OC)[C@@](C)(COC(C)=O)OC(=O)C[C@@H]2OC(C)=O)[C@@H](OC=O)[C@H](OC(=O)C(OC(C)=O)C(C)CC)[C@@]2(C)[C@H](c3ccoc3)CC(=O)C12O (some centres not stated) | > 4 mM (inactive)
Cc1ccc(NC(=O)CC2NCCNC2=O)c(C)c1 (configuration not stated) | > 4 mM (inactive)
Cc1nc(CC(=O)O)c(-c2ccccc2)s1 | > 4 mM (inactive)
NC1=NC(=O)C(Cc2cccc([N+](=O)[O-])c2)S1 (configuration not stated) | > 4 mM (inactive)
Nc1cc(=O)[nH]c(=S)n1-c1cccc(C(F)(F)F)c1 | > 4 mM (inactive)
Cc1ccc(C)c(C(=O)NCc2ccncc2)c1 | > 4 mM (inactive)
O=C(NCc1ccccn1)c1ccc(Cl)cc1Cl | > 4 mM (inactive)
Nc1nc2[nH]c(=O)c(=O)[nH]c2c(=O)[nH]1 | > 4 mM (inactive)
Cn1c(=O)n(C)c2cc(C(N)=O)ccc21 | > 4 mM (inactive)
Cc1nccc2c1[nH]c1ccccc12 | > 4 mM (inactive)
COc1cc(C(=O)NCC2CCCO2)cc(OC)c1OC (configuration not stated) | > 4 mM (inactive)
NC(=O)C1CCN(c2nccc(C(F)(F)F)n2)CC1 | > 4 mM (inactive)
c1ccc(SCc2nc(-c3ccncc3)no2)cc1 | > 4 mM (inactive)
COc1ccc(-c2nc3nc(C)cc(C)n3n2)cc1 | > 4 mM (inactive)

SMILES | Kd
CC(=O)NC(O)C(=O)c1cccs1 (configuration not stated) | > 4 mM (inactive)
CCOc1ccc(C)cc1S(=O)(=O)n1ccc(C)n1 | > 4 mM (inactive)
C=C[C@H]1CN2CC[C@H]1C[C@H]2[C@H](O)c1ccnc2ccccc12 | > 4 mM (inactive)
COc1cc(-c2coc3cc(OC)c(OC)c(OC)c3c2=O)cc(OC)c1OC | > 4 mM (inactive)
CC1(C)NC(=O)N(CN2CCOCC2)C1=O | > 4 mM (inactive)
CC(C)=NNC(=O)C(=O)NC(C)(C)C | > 4 mM (inactive)
O=c1cc(-c2ccc(O)cc2)oc2cc(O)cc(O)c12 | > 4 mM (inactive)
CC(=O)Nc1nnc(-c2ccccc2S(C)(=O)=O)o1 | > 4 mM (inactive)
O=C(O)CNC(=O)c1ccccc1 | > 4 mM (inactive)
O=C(O)c1ccc2ncccc2c1 | > 4 mM (inactive)
CN(C)N1C(=O)C2C3C=CC(O3)C2C1=O (configuration not stated) | > 4 mM (inactive)
COc1ccc(-c2ccc(OC)cc2C(=O)O)cc1 | > 4 mM (inactive)
O=C(O)C1CN2CCC1CC2 (configuration not stated) | > 4 mM (inactive)
O=C(O)c1cccc2c1OCC2 | > 4 mM (inactive)
[O-][n+]1c2ccccc2[n+]([O-])c2cc(O)ccc21 | > 4 mM (inactive)
CC1(C)O[C@H]2CC(=O)OC[C@]23[C@H]2CC[C@@]4(C)[C@H](c5ccoc5)OC(=O)[C@H]5O[C@]54[C@]2(C)C(=O)C[C@@H]13 | > 4 mM (inactive)
Cn1c([O-])c([N+](C)(C)C)c(=O)n(C)c1=O | > 4 mM (inactive)
CNC(=O)n1ccc(C(=O)N2CCCCC2)n1 | > 4 mM (inactive)
Oc1ccccc1N=Cc1cccnc1 | > 4 mM (inactive)
NC(=O)Cc1nc2ccccc2[nH]1 | > 4 mM (inactive)
CC(=O)O[C@@H]1CC2C(C)(C)C(=O)C3OC3[C@]2(C)C2CC[C@@]3(C)[C@H](c4ccoc4)OC(=O)C4OC43[C@@]21C (some centres not stated) | > 4 mM (inactive)

SMILES | Kd
O=C(OCc1c(Cl)cccc1Cl)c1cnccn1 | > 4 mM (inactive)
NC(=O)CC1NC(=O)c2ccccc21 (configuration not stated) | > 4 mM (inactive)
NC(=O)CN1CC(=O)NC(=O)C1 | > 4 mM (inactive)
CCn1ncc(Cl)c1C(=O)Nc1ccncc1 | > 4 mM (inactive)
C/C=C(\C)c1nnc(NC(=O)c2ccco2)s1 | > 4 mM (inactive)
CCc1c(C(=O)Nc2ccncc2)csc1C | > 4 mM (inactive)
CC1(C)C2CC[C@]3(C)C(C(=O)C=C4[C@H]5C[C@@](C)(C(=O)O)CC[C@]5(C)CC[C@]43C)[C@@]2(C)CC[C@@H]1O (some centres not stated) | > 4 mM (inactive)
O=c1ccc2c([nH]1)CCCC2 | > 4 mM (inactive)
OC1CC(c2ccccc2)NC2(CCCC2)C1 (configuration not stated) | > 4 mM (inactive)
O=C1CC[C@]23/C=C/C(=O)NCCCCNCCCNC(=O)/C=C/c4ccc(c2c4)O[C@@H]3C1 | > 4 mM (inactive)
NC(=O)CSc1nnc(-c2ccncc2)o1 | > 4 mM (inactive)
CC(=O)Cc1nsc(NC(=O)c2ccc(C)cc2)n1 | > 4 mM (inactive)
O=C(O)C(Cc1cnc[nH]1)N1C(=O)c2ccccc2C1=O (configuration not stated) | > 4 mM (inactive)
Cc1csc2nc(=O)c3ccccc3n12 | > 4 mM (inactive)
Cc1ccc(C)c(S(=O)(=O)NCc2cccnc2)c1 | > 4 mM (inactive)
O=C(Nc1cnccn1)c1cccc(C(F)(F)F)c1 | > 4 mM (inactive)
CCC(=O)Nc1ccccc1NC(C)=O | > 4 mM (inactive)
Cc1nnc(N2CCN(Cc3ccccc3)CC2)[nH]c1=O | > 4 mM (inactive)
C[n+]1ccn(C/C(N)=N/O)c1 | > 4 mM (inactive)

From PubChem BioAssay AID1549 (Sanford-Burnham Center for Chemical Genomics, 2009)
